In PMC6315728, “Fatty Acid and Related Potassium Kv2 Channel Blockers: Toxicity and Physiological Actions on Mosquitoes” (Insects, 2018):
Read-outs that look alike come from different tables or passages of the source.

Target: T1, AgKv2.1 (voltage-gated potassium channel Kv2.1) (Anopheles gambiae, UniProt Q5TT67)
T1 construct: gene 1274312
T1 sequence (Q5TT67 1-1014): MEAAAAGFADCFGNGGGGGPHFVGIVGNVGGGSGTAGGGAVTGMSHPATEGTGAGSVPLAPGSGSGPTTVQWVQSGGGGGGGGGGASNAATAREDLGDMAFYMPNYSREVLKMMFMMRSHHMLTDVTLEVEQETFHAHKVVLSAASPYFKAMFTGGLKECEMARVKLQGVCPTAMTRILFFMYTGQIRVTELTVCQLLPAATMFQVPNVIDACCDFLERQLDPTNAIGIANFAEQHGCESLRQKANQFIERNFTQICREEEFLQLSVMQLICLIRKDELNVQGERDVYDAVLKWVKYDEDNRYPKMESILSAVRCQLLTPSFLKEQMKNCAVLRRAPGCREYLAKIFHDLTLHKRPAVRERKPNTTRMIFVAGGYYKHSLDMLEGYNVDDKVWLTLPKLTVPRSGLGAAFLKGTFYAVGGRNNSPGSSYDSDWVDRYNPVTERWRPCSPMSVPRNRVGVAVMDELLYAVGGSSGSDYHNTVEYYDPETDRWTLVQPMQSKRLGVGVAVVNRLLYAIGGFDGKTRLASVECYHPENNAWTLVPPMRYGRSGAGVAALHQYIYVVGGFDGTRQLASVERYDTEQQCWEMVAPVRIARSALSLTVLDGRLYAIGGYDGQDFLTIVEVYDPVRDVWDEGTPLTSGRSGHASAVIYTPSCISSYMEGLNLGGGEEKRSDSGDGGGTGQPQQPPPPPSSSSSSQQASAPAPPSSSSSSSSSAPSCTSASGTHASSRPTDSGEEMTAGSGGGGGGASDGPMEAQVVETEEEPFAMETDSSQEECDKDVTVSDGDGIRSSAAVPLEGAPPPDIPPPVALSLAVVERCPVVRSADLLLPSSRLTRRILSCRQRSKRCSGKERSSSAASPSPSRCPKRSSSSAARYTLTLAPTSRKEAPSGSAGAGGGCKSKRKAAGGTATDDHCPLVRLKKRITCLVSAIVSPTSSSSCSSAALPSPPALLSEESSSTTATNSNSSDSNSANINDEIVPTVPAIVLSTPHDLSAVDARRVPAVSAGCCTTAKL
Test: whole-cell patch-clamp of HEK-293 cells expressing AgKv2.[…], current inhibition at +[…] mV
Assay type: cell-based

IC50 (read-out: Patch Clamp / IC50 /) | Compound | IC50
30 µM | CCCCCC(O)CCCC(=O)O (stereo not drawn) [5-HDC] | –
1.18 µM | CN(C)c1cccc2c(S(=O)(=O)NCCCCCCCCCCC(=O)O)cccc12 [DAUDA] | –
– | CCCCCCCCCC(=O)O [decanoic acid] | 0.61 µM
